These results are taken from patent publication US20260306463A1, “SIK INHIBITORS TO TREAT CHRONIC KIDNEY DISEASE” (The General Hospital Corporation, priority 2023, published 2026).

“Also recorded” adds a separate entry of the source. Where two headings read alike, the source gives them in different places.

The subject of test [1] is intact proximal tubular epithelial genes. The test can be described thus: whole kidney RNA RT-qPCR of proximal tubule marker genes, adenine CKD mice. Format: in vivo, mouse. The protocol:
(§1) FIGS. 1A-1E. […] (A) Study design: Female CD1 mice (n=8/group) were treated with control or 0.2% adenine diet starting at 6 weeks of age along with vehicle or SK-124 (40 mg/kg) treatment by oral gavage once daily. Bottom: body weight of mice in the indicated treatment groups. […] (B, C) After 6 weeks of treatment, the indicated analytes were measured in fasting serum or urine. […] (D) H+E-stained kidney sections were assessed on a blinded basis by a pathologist for tubulointerstitial damage. (E) Whole kidney RNA from the indicated groups was analyzed by RT-qPCR for the indicated proximal tubule marker gene. For all panels in all figures, 1-way ANOVA was performed with Dunnett's posthoc analysis to analyze differences between treatment groups, p values less than 0.05 are shown in graph.
(§2) 7-week-old female CD1 mice were obtained from Charles River Laboratories (Wilmington, MA) and were fed on 0.2% adenine containing diet (TD.130900; 0.2% Adenine, 0.9% Phosphate, 0.5% Calcium; Envigo) or control diet (TD. 96348) for 6 or 8 weeks to induce chronic kidney disease (CKD). Mice were oral gavaged with 40 mg/kg SK-124, or intraperitonially injected with 80 μg/kg PTH, or treated with vehicle 5 days a week for the duration of the special diet.
(§3) For studies with Ubiquitin-Cre^ERt2; Sik2^ff; Sik3^ff mice (JAX #007001 for Ubiquitin-Cre^ERt2: RRID:MGL:5905012 for Sik2 foxed mice; and Sik3^tmla(EUCOMM)Hmgu mice (RRID:MGI:5085429) bred to PGK1 FLPo mice (JAX #011065) in order to generate Sik3 foxed mice), tamoxifen was injected (1 mg, IP, Q48 hours, 3 injections total) in all animals including Cre-negative control littermates housed in cages with Pure-o′Cel bedding at 5 weeks of age. Mice were then fed on 0.2% adenine diet from 6 weeks to 9 weeks of age. Mice were fasted for 6 hours and treated with SK-124 and PTH 4 hours and 2 hours before the sacrifice. Blood and spot urine samples were collected by cheek pouch bleeding and by pipetting urine collected on hydrophobic sand (Labsand; Braintree, MA). Kidneys were immediately snap-frozen in liquid nitrogen for TRIzol (Life Technologies)-Chloroform (Fischer Scientific) based RNA isolation or protein isolation, or fixed in 10% formalin at 4C for 24 hrs for histology. All serum and urine measurements were performed using commercial bioassay detection reagents listed in Table 1, following the manufacturers' instructions. Urine protein levels were measured by Bradford assay and normalized to urine creatinine.
cDNA was prepared using Primescript RT kit (Takara Inc), with 750 ng RNA per reaction. […] Hmbs was used as a control housekeeping gene for mouse samples, and B-Actin was used for organoids, relative expression was calculated (2^-deltaCT method) and compared to the mean of control group if necessary. […]
On the technique in general: In qPCR the cycle at which signal appears reflects the starting amount.

Test [2] relates to mice with adenine diet-induced chronic kidney disease. The experiment in a line: 8 week adenine diet CKD study, SK-124 versus once daily PTH injections. The settings on record: 8 weeks. Type of test: in vivo, mouse (female CD1). Here is the method: FIGS. 4A-4D. […] (A) Study design: Female CD1 mice (n=8/group) were treated with control or 0.2% adenine diet starting at […] of age along with vehicle, PTH (80 mcg/kg/d, IP injections) or SK-124 (40 mg/kg) treatment by oral gavage once daily. Mice were treated for 8 weeks. (B, C) After 8 weeks of treatment, the indicated serum analyte was measured. (D) Whole kidney RNA from the indicated groups was analyzed by RT-qPCR for the indicated fibrosis marker gene.
as §2, §3
cDNA was prepared using Primescript RT kit (Takara Inc), with 750 ng RNA per reaction. RT-qPCR was performed by using PerfeCa® SYBR® Green FAstMix® ROX (Quanta bio) in the StepOnePlus™ Real-time PCR System (Applied Biosystems). Hmbs was used as a control housekeeping gene for mouse samples, and B-Actin was used for organoids, relative expression was calculated (2^-deltaCT method) and compared to the mean of control group if necessary. Primers used for RT-qPCR are listed in Table 2 (mouse primers) and Table 3 (human primers).

For test [3], the system named is mice with adenine-induced chronic kidney disease. The experiment in a line: adenine diet-induced CKD in mice, 6 weeks: body weight, renal function, mineral metabolism, histology. Type of test: in vivo, mouse (female CD1). The protocol: as §1, §2, §3
Test [4] relates to mouse CKD kidneys and human kidney organoids. The test can be described thus: overlap of injury-regulated genes rescued by SK-124 in mouse adenine diet and human cisplatin organoid studies. The settings on record: Venn overlap, both CKD models. The protocol:
FIGS. 13A-13E. Transcriptomic effects of SK-124 in cisplatin-induced human kidney organoid model. RNA-seq was performed on kidney organoid RNA samples (n=4/group) from FIG. 8. Volcano plot show gene regulated (>2-fold change, p(adj)<0.05) by cisplatin (versus vehicle, A) or within cisplatin-treated organoids by SK-124 (versus DMSO control, B). In Volcano plot, representative fibrosis/injury markers (Col8a1, Fni, Serpinel) and proximal tubule integrity (Lrp2 and Hnf4a) are shown. Scatterplot (C) and heatmap (D) showing integration of individual RNA-seq comparisons.
Isolated RNA samples from the mouse adenine diet study and human kidney organoid experiment were submitted to Novogene and bulk-RNA sequencing on NovaSeq X Plus Ilumina Novoseq Platform. Sequencing reads were mapped to the mouse reference genome (mm10/GRCm38) or human reference genome (GRCh38/hg38) using Salmon and differential gene expression analysis was performed using DESeq2.

The test system of another test is SIK2/SIK3. The settings on record: reference to WO 2022/031928, Sato et al., Yoon et al., cited from earlier work.
Where [5] appears, read: whole kidney RNA, RT-qPCR, 6 weeks adenine diet.
Where [6] appears, read: 0.2% adenine diet, 6 weeks, SK-124 40 mg/kg oral.

On to `CCc1nnc(-c2c(OC)cc(-c3cnc4cc(-c5cnn(C)c5)ccn34)cc2OC)o1` [SK-124, 2-[2,6-Dimethoxy-4-[7-(1-methylpyrazol-4-yl)imidazo[1,2-a]pyridin-3-yl]phenyl]-5-ethyl-1,3,4-oxadiazole], for which, in test [1] (adenine-induced CKD), the epithelial cell integrity result is recorded as “preserves epithelial cell integrity”. In test [1] (setting [5]), the Atpla1 expression entry was “restored expression”, the Lrp2 expression result is reported as “restored expression” and the Slc34a1 expression entry is recorded as “restored expression”. Moreover, in test [2] (SK-124 40 mg/kg oral gavage once daily, or PTH 80 mcg/kg/d IP), the CKD-MBD markers entry is reported as “reduced CKD-MBD markers”. For the same compound, the kidney function entry in test [2] (SK-124 40 mg/kg oral gavage once daily, or PTH 80 mcg/kg/d IP, 40 mg/kg) is given as “improved kidney function”. Moreover, the “fibrosis marker gene expression” value in test [2] (whole kidney RT-qPCR, SK-124 40 mg/kg oral, or PTH 80 mcg/kg/d IP) was “reduced fibrosis marker gene expression”. Further, in test [3] (setting [6]), the BUN entry is recorded as “reduced”, the creatinine entry was “reduced”, the “cystatin C” value was “reduced” and the hyperphosphatemia result is reported as “improved”. Further, in test [3] (setting [6]), the “increased FGF-23” value is reported as “improved”, the proteinuria result is on record as “reduced” and the secondary hyperparathyroidism entry is “improved”. Further, the body weight entry in test [3] (0.2% adenine diet, 6 weeks, SK-124 40 mg/kg oral gavage once daily, 40 mg/kg) is on record as “CKD-induced weight loss is prevented; also recorded: improved body weight”. Besides, the “renal (kidney) function and overall health” value in test [3] (0.2% adenine diet, 6 weeks, SK-124 40 mg/kg oral, 40 mg/kg) was “improves renal function; also recorded: dramatic improvements in renal function and overall health; also recorded: restores kidney function”. In addition, the tubule-interstitial damage result in test [3] (H+E-stained kidney sections, blinded pathologist) is listed as “reduced tubule-interstitial damage”. In test [3] (after 6 weeks of treatment, SK-124 40 mg/kg oral), the “CKD-induced changes of analytes in fasting serum or urine” value is recorded as “All CKD-induced changes were prevented”. In addition, in test [4], the “conserved genes induced with injury and reduced by SK-124” value is given as 419 genes; the “conserved genes suppressed by injury and restored by SK-124” value stood at 373 genes. Moreover, the SIK isoform selectivity entry in the test on SIK2/SIK3 is on record as “specific SIK2/SIK3 inhibitor; also recorded: SIK2/SIK3-selective inhibitor”. Besides, the SIK isoform selectivity result in the test on SIK2/SIK3 (listed as SIK-124) is recorded as “selective SIK2/SIK3 inhibitor”.
